Holding throughout (assay type): in vivo
Experiment [1] has as its system Stellaria media. Put plainly: Post-emergence herbicidal activity against STEME. As to conditions: dosage 320 g/ha, rated about 3 weeks after treatment; for pest or weed control at 320 g/ha: Stellaria media, 504 h. In outline: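 Greenhouse plants treated at one-leaf stage, 2–3 weeks after sowing, by spraying WP or EC formulations with 0.5% additive at 600 l/ha water. Visual rating about 3 weeks later versus untreated controls (100% = plants dead, 0% = like controls).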

A short description of experiment [2]: Post-emergence treatment, summary over harmful plants. The note with it: 504 h, application rate of 0.32 kg of active substance or less per hectare, read-out: herbicidal action, post-emergence treatment (very good herbicidal activity). A digest of the protocol: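 Greenhouse-grown weeds and crops were sprayed at the one-leaf stage (2–3 weeks post-sowing) with WP or EC formulations plus 0.5% additive at 600 l/ha water. About 3 weeks later, activity was visually rated against untreated controls (100% = dead plants, 0% = like control).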

Experiment [3] deals with Amaranthus retroflexus. Put plainly: Post-emergence herbicidal activity against AMARE. As to conditions: Amaranthus retroflexus, 504 h, dosage 320 g/ha, rated about 3 weeks after treatment. The procedure:
(§1) AMARE: Amaranthus retroflexus AVEFA: Avena fatua 2. Post-Emergence Herbicidal Action and Crop Plant Compatibility Seeds of monocotyledonous and dicotyledonous weeds and crop plants are placed in sandy loam in plastic or wood-fiber pots, covered with soil and cultivated in a greenhouse under controlled growth conditions. 2 to 3 weeks after sowing, the test plants are treated at the one-leaf stage. The compounds of the invention, formulated in the form of wettable powders (WP) or as emulsion concentrates (EC), are then sprayed onto the green parts of the plants as aqueous suspension or emulsion with addition of 0.5% additive at a water application rate of 600 l/ha (converted). After the test plants had been kept in the greenhouse under optimum growth conditions for about 3 weeks, the activity of the preparations is rated visually in comparison to untreated controls. For example, 100% activity=the plants have died, 0% activity=like control plants.

Experiment [4] deals with Alopecurus myosuroides. Put plainly: Pre-emergence herbicidal activity against ALOMY. The note with it: dosage 80 g/ha, scored visually after about 3 weeks vs untreated controls (100% = plants have died, 0% = like control plants); for pest or weed control at 80 g/ha: Alopecurus myosuroides, 504 h. An excerpt: 1. Pre-Emergence Herbicidal Action and Crop Plant Compatibility Seeds of monocotyledonous and dicotyledonous weed plants and crop plants are placed in plastic or wood fiber pots and covered with soil. The compounds of the invention, formulated in the form of wettable powders (WP) or as emulsion concentrates (EC), are then applied onto the surface of the covering soil as aqueous suspension or emulsion with addition of 0.5% additive at a water application rate of 600 l/ha (converted). After the treatment, the pots are placed in a greenhouse and kept under good growth conditions for the trial plants. After about 3 weeks, the effect of the preparations is scored visually in comparison with untreated controls as percentages. For example, 100% activity=the plants have died, 0% activity=like control plants. ABUTH: Abutilon theophrasti ALOMY: Alopecurus myosuroides

The subject of experiment [5] is Abutilon theophrasti. In words: Post-emergence herbicidal activity against ABUTH. As to conditions: Abutilon theophrasti, 504 h, dosage 320 g/ha, rated about 3 weeks after treatment. The procedure: as §1, with “ABUTH: Abutilon theophrasti ALOMY: Alopecurus myosuroides” for “AMARE: Amaranthus retroflexus AVEFA: Avena fatua”
For experiment [6], the system named is Viola tricolor. In words: Post-emergence herbicidal activity against VIOTR. The note with it: dosage 320 g/ha, rated about 3 weeks after treatment; for pest or weed control at 320 g/ha: Viola tricolor, 504 h. The procedure: as §1, with “VIOTR: Viola tricolor” for “AMARE: Amaranthus retroflexus AVEFA: Avena fatua”

SMILES strings stand for the structures.

For `CC(C)(C)OC(=O)[C@H]1C[C@@H](NC(=O)C2(C)CC(c3cccc(F)c3)=NO2)CO1` (mixture of isomers) [I-33, tert-butyl cis-4-[[(5RS)-3-(3-fluorophenyl)-5-methyl-4H-isoxazole-5-carbonyl]amino]tetrahydrofuran-2-carboxylate], the pest or weed control at 320 g/ha was 90% in experiment [1], 80 to 100% in experiment [2] and 90% in experiment [3]. The same compound had a pest or weed control at 80 g/ha in experiment [4] of 100%.

`COC(=O)C1=C[C@H](NC(=O)C2(C)CC(c3cccc(F)c3)=NO2)CO1` (stereo partly drawn) [I-39, methyl (3S)-3-[[3-(3-fluorophenyl)-5-methyl-4H-isoxazole-5-carbonyl]amino]-2,3-dihydrofuran-5-carboxylate]: the pest or weed control at 320 g/ha in experiment [1] worked out at 90%; in experiment [5], 80%; in experiment [3], 80%; in experiment [6], 80%.

Regarding `COC(=O)[C@H]1C[C@H](NC(=O)[C@@]2(C)CC(c3cc(F)cc(F)c3)=NO2)CO1` (mixture of isomers) [I-55, methyl trans-4-[[(5R)-3-(3,5-difluorophenyl)-5-methyl-4H-isoxazole-5-carbonyl]amino]tetrahydrofuran-2-carboxylate], the pest or weed control at 320 g/ha in experiment [1] was 90%; in experiment [5], 90%; in experiment [2], 80 to 100%; in experiment [3] it was 80%; in experiment [6] it was 90%.

Turning to `COC(=O)[C@@]1(OC)C[C@@H](NC(=O)C2(C)CC(c3cccc(F)c3)=NO2)CO1` (stereo partly drawn) [I-47, methyl (2R,4R)-4-[[3-(3-fluorophenyl)-5-methyl-4H-isoxazole-5-carbonyl]amino]-2-methoxytetrahydrofuran-2-carboxylate], the values for the pest or weed control at 320 g/ha in experiment [1], in experiment [5] and in experiment [6] were 90%, 80% and 80%, respectively.

Consider `C=C[C@]1(C(=O)N[C@@H]2CO[C@@H](C(=O)OC)C2)CC(c2cc(F)cc(F)c2)=NO1` (mixture of isomers) [I-56, methyl trans-4-[[(5S)-3-(3,5-difluorophenyl)-5-vinyl-4H-isoxazole-5-carbonyl]amino]tetrahydrofuran-2-carboxylate], for which the pest or weed control at 320 g/ha in experiment [1] was 90%; in experiment [5], 90%; in experiment [2] it was 80 to 100%; in experiment [3], 90%; in experiment [6], 90%.

Take `C=CC1(C(=O)N[C@H]2CO[C@@H](C(=O)OC)C2)CC(c2cc(Cl)cc(Cl)c2)=NO1` (relative stereo) [I-03, methyl cis-4-[[3-(3,5-dichlorophenyl)-5-vinyl-4H-isoxazole-5-carbonyl]amino]tetrahydrofuran-2-carboxylate]: the pest or weed control at 320 g/ha in experiment [1] is 90%; in experiment [2] it was 80 to 100%.

In the case of `COC(=O)[C@H]1C[C@@H](NC(=O)C2(OC)CC(c3cc(C)cc(Br)c3)=NO2)CO1` (relative stereo) [I-08, methyl cis-4-[[3-(3-bromo-5-methylphenyl)-5-methoxy-4H-isoxazole-5-carbonyl]amino]tetrahydrofuran-2-carboxylate], the results for the pest or weed control at 320 g/ha in experiment [2] and in experiment [6] were 80 to 100% and 80%, respectively.

With `COC(=O)[C@H]1C[C@@H](NC(=O)[C@@]2(C)CC(c3cc(F)cc(F)c3)=NO2)CO1` (mixture of isomers) [I-09, methyl cis-4-[[(5R)-3-(3,5-difluorophenyl)-5-methyl-4H-isoxazole-5-carbonyl]amino]tetrahydrofuran-2-carboxylate], the pest or weed control at 320 g/ha was 90% in experiment [1], 80 to 100% in experiment [2] and 80% in experiment [6]. This compound displayed a pest or weed control at 80 g/ha in experiment [4] of 100%.

Regarding `CCOC(=O)[C@H]1C[C@@H](NC(=O)C2(C)CC(c3cccc(F)c3)=NO2)CO1` (mixture of isomers) [I-30, ethyl cis-4-[[(5RS)-3-(3-fluorophenyl)-5-methyl-4H-isoxazole-5-carbonyl]amino]tetrahydrofuran-2-carboxylate], the pest or weed control at 320 g/ha in experiment [1] was 90%; in experiment [2], 80 to 100%. Further, in experiment [4], the pest or weed control at 80 g/ha came to 100%.

Consider `COC(=O)[C@H]1C[C@@H](NC(=O)C2(C)CC(c3cc(C)cc(Br)c3)=NO2)CO1` (relative stereo) [I-04, methyl cis-4-[[3-(3-bromo-5-methylphenyl)-5-methyl-4H-isoxazole-5-carbonyl]amino]tetrahydrofuran-2-carboxylate], for which the pest or weed control at 320 g/ha in experiment [1] is 90%; in experiment [2], 80 to 100%; in experiment [6], 80%.

Take `C=CC1(C(=O)NC2=C(C(=O)OCC)COC2)CC(c2cc(F)cc(F)c2)=NO1` (stereo not shown) [I-23, ethyl 4-[[3-(3,5-difluorophenyl)-5-vinyl-4H-isoxazole-5-carbonyl]amino]-2,5-dihydrofuran-3-carboxylate]: the pest or weed control at 320 g/ha was 90% in experiment [1], 80 to 100% in experiment [2] and 80% in experiment [3]. The same compound showed a pest or weed control at 80 g/ha in experiment [4] of 90%.

With `COC(=O)C1CC(NC(=O)C2(C(C)(F)F)CC(c3cc(F)cc(F)c3)=NO2)CO1` (stereo not shown) [I-49], the “Post-emergence herbicidal activity against STEME in %” value in experiment [1] was determined as 90%. In addition, the “Pre-emergence herbicidal activity against ALOMY in %” value in experiment [4] is listed as 100%. Moreover, the “Post-emergence herbicidal activity against VIOTR in %” value in experiment [6] is on record as 80%.

In the case of `C=CC1(C(=O)N[C@H]2CO[C@@H](C(=O)OC)C2)CC(c2cccc(F)c2)=NO1` (relative stereo) [I-07, methyl cis-4-[[3-(3-fluorophenyl)-5-vinyl-4H-isoxazole-5-carbonyl]amino]tetrahydrofuran-2-carboxylate], the pest or weed control at 320 g/ha was 90% in experiment [1] and 80 to 100% in experiment [2].

Regarding `COC(=O)[C@H]1C[C@@H](NC(=O)C2(OC)CC(c3cc(F)cc(F)c3)=NO2)CO1` (relative stereo) [I-05, methyl cis-4-[[3-(3,5-difluorophenyl)-5-methoxy-4H-isoxazole-5-carbonyl]amino]tetrahydrofuran-2-carboxylate], the pest or weed control at 320 g/ha in experiment [1] is 90%; in experiment [2], 80 to 100%.

`COC(=O)[C@H]1C[C@@H](NC(=O)C2(OC)CC(c3ccccc3)=NO2)CO1` (relative stereo) [I-14, methyl cis-4-[(5-methoxy-3-phenyl-4H-isoxazole-5-carbonyl)amino]tetrahydrofuran-2-carboxylate]: the pest or weed control at 320 g/ha in experiment [1] was 90%; in experiment [2], 80 to 100%.

With `COC(=O)C1COCC1NC(=O)C1(OC)CC(c2cc(F)cc(F)c2)=NO1` (stereo not shown) [I-27, methyl 4-[[3-(3,5-difluorophenyl)-5-methoxy-4H-isoxazole-5-carbonyl]amino]tetrahydrofuran-3-carboxylate], the pest or weed control at 320 g/ha in experiment [1] is 80%; in experiment [2], 80 to 100%; in experiment [6] it was 80%. This compound registered a pest or weed control at 80 g/ha in experiment [4] of 90%.

The values above are taken from patent US11597724B2, “Herbicidally active 3-phenylisoxazoline-5-carboxamides of tetrahydro and dihydrofuran carboxylic acids and esters” (Bayer Aktiengesellschaft, priority 2017, dated 2023).
